Measurements reported in patent publication US10358531B2, “Crosslinked polymer nano-assemblies and uses thereof” (University of Massachusetts, priority 2011, dated 2019).

Columns and labels:
HeLa cells [1] = assay: Toxicity of PTX-loaded carriers, Alamar Blue assay; format: cell-based; settings: 72 h, 10 μM PTX
Description: (§1) Selective delivery of chemotherapeutic drug. To test whether the observed target selectivity would translate into differential cell kill efficiency, the ligand-coated nanogels encapsulating a chemotherapeutic drug molecule, paclitaxel (PTX) were prepared. The PTX-loaded polymeric aggregates (polymer-PTX), NG (NG-PTX) and NG-RGD (NG-RGD-PTX) were added to MCF7 cells and HeLa cells and the extent of cell death was investigated after 72 h. […] This supports the hypothesis that the polymeric micellar aggregates have a leaky nature, which leads to free drug being translocated through the cellular membrane. […] This is consistent with the observed slow internalization of nanogels, which should result in a reduced amount of chemotherapeutic inside the cells.
(§2) Cell culture: The cell viabilities of the nanogels were tested with 293T cells. 293T cells were cultured in T75 cell culture flasks using Dulbecco's Modified Eagle Medium/Nutrient Mixture F-12 (DMEM/F12) with 10% fetal bovine serum (FBS) supplement. […] Cell viability was measured using the Alamar Blue assay with each data point measured in triplicate. Fluorescence measurements were made using the plate reader SpectraMax M5 by setting the excitation wavelength at 560 nm and monitoring emission at 590 nm on a black well plate. […] Cell death was measured by the Alamar Blue assay in triplicate.

MCF7 cells = assay: Toxicity of PTX-loaded carriers, Alamar Blue assay; format: cell-based; settings: MCF7, 72 h, 10 μM PTX
Description: as §1, §2

MCF-7 cells = assay: Cell uptake of free Dox and Dox-loaded nanogels by confocal microscopy; format: cell-based; settings: 20 μM Dox concentration, 3-4 h
Description: For further study, the cell uptake of both free Dox and Dox-loaded nanogels (20 μM Dox concentration) was monitored using confocal microscopy over time. Initial internalization of Dox was observed within 3 h for free Dox and NG3-Dox, but not until 4 h for NG1-Dox (FIG. 9c-g). […] This is presumably the reason that the two nanogels show similar toxicities.
Laser Scanning Confocal Microscopy: The laser confocal experiment was performed with MCF-7 cells. MCF-7 cells were cultured in T75 cell culture flask containing DMEM/F12 with 10% FBS supplement. The cells were seeded at 10,000 cells/100 μL in cover slip-bottomed Petri dishes and allowed to grow for 3 days at 37° C. in a 5% CO2 incubator. The cells in 2 mL of culture medium were treated with 200 μL of nanogels containing two dyes or doxorubicin and incubated at 37° C. for different time intervals before monitoring the cells by confocal microscopy.

[2] = DLS size of NG-CRRR nanogels, β-gal and complexes; estimated numbers per complex; format: physicochemical
Description: Also evaluated were the size change and charge alteration of the nanogel surface due to the complexation event using DLS and zeta potential measurements respectively.

HeLa cells [3] = assay: Intracellular delivery of DiI and FITC-β-gal by confocal microscopy; format: cell-based; settings: without nanogel
Description: Intracellular delivery of DiI and β-gal was also tested. As the nanogels consist of biodegradable disulfide crosslinkers, the release of the complexed protein and encapsulated lipophilic molecule can be triggered upon exposure to glutathione (present at higher concentrations inside the cells (mM), compared to the extracellular concentration […]). To compare the release profile of these dual delivery systems, NG1-CRRR and NG2-CRRR containing DiI in its interior and complexed with FITC labeled β-gal, were added to HeLa cells with serum and without serum. In the case of cell internalization of both encapsulated DiI and FITC labeled protein, a yellow color would be observed due to the co-localization and overlay of both red and green fluorophores for DiI and FITC, respectively. If there is no internalization of the nanogel, no color could be observed.
Fluorescence distribution of DiI and FITC was observed over time by confocal fluorescence microscopy with simultaneous excitation of both dye molecules at 488 nm and 543 nm for FITC and DiI, respectively. As shown in FIGS. 33a and 33b, green and red emissions were observed when the cells were treated with the nanogel-protein complexes. […] The green fluorescence of the FITC (label for protein) and red fluorescence for DiI (encapsulated small molecule) appear uniformly distributed. […]

CC(=O)O[C@H]1C(=O)[C@@]2(C)[C@H]([C@H](OC(=O)c3ccccc3)[C@]3(O)C[C@H](OC(=O)[C@H](O)[C@@H](NC(=O)c4ccccc4)c4ccccc4)C(C)=C1C3(C)C)[C@]1(OC(C)=O)CO[C@@H]1C[C@@H]2O [free PTX, paclitaxel]
toxicity (cell death) (HeLa cells [1]): highly toxic | toxicity (cell death) (MCF7 cells): highly toxic

COc1cccc2c1C(=O)c1c(O)c3c(c(O)c1C2=O)C[C@@](O)(C(=O)CO)C[C@@H]3O[C@H]1C[C@H](N)[C@H](O)[C@H](C)O1 [free Dox, doxorubicin]
intracellular localization of Dox (MCF-7 cells): significant accumulation in the nucleus

β-gal: β-galactosidase (pI: 4.8, from E. coli), the model protein
hydrodynamic diameter [2]: ~10 nm | intracellular delivery of protein alone (HeLa cells [3]): not efficient

FITC-β-gal: β-gal functionalized with fluorescein
intracellular delivery of protein alone (HeLa cells [3]): no fluorescence
